Results published in article PMC8780658 (Pharmaceutics, 2021).
Where a SMILES comes first, the peptide text is derived from it. The star is where a group is joined. Doxorubicin(3'-N) = COc1cccc2c1C(=O)c1c(O)c3c(c(O)c1C2=O)C[C@@](O)(C(=O)CO)C[C@@H]3O[C@H]1C[C@H](N*)[C@H](O)[C@H](C)O1; Propanoyl(3-maleimido) = O=C1C=CC(=O)N1CCC(=O)*; PEG2 = NCCOCCOCCC(=O)O

What was measured:
[1] = Pharmacokinetics after intravenous injection; type: in vivo; conditions: BALB/c nude mice, i.v.
Description: Mice were bred under pathogen-free conditions at the Korea Institute of Science and Technology (KIST). All experiments with live animals were performed in compliance with the relevant laws and institutional guidelines of Institutional Animal Care and Use Committee (IACUC) in Korea Institute of Science and Technology (KIST), and IACUC approved the experiment (approved number of 2020-123). […] Then, each drug in the blood samples was extracted with DMSO by intense vortex and the samples were centrifuged at 2000 rpm for 40 min to obtain as a blood plasma. Finally, amount of free DOX and Al-ProD in samples was analyzed by IVIS Lumina Series III system (PerkinElmer; Waltham, MA, USA).

MDA-MB231 tumor [2] = test: Biodistribution in breast tumor models (NIRF imaging)
Description: The biodistribution of Al-ProD was assessed in breast tumor models, which were prepared by subcutaneous inoculation of 1 × 10^7 MBA-MB231 cells into the left flank of BALB/c nude mice. […] Then, noninvasive near-infrared fluorescence (NIRF) imaging was performed using an IVIS Lumina Series III system after 0 h, 3 h, 6 h, 12 h, 24 h, 48 h, and 72 h of injection. Fluorescence intensities in tumor regions were quantified via Living Image software. Mice were sacrificed after 12 h of injection for ex vivo imaging, followed by the collection of lung, liver, kidney, spleen, heart, and tumor tissues. Tumor tissues were also cut into 10 µm thick sections for histological assays. Slide-mounted tumor sections were analyzed by Leica TCS SP8 confocal laser-scanning microscope.

[3] = In vivo toxicity evaluation in MDA-MB231 tumor-bearing mice
Description: (§1) Antitumor efficacy was assessed by measuring tumor volumes once every two days, calculated as largest diameter × smallest diameter^2 × 0.53, once every 2 days. The body weights of mice were also measured once every two days to assess in vivo toxicity. The in vivo toxicity of Al-ProD was further assessed by histological analyses. At 20 days after treatment, major organs were collected from mice and samples were stained with H&E following the manufacturer’s protocol. Then, organ sections were observed using an optical microscope.

MDA-MB231 tumor [4] = test: Antitumor efficacy in MDA-MB231 tumor-bearing mice; type: in vivo, BALB/c nude mice; conditions: 3 mg/kg based on DOX contents, once every three days; saline group 1810.98 ± 544.56 mm^3
Description: as §1

H9C2 cells = test: Cellular uptake, confocal fluorescence imaging; type: cell-based, rat; conditions: 2 µM, 48 h, 37 °C, CLSM
Description: (§2) To assess intracellular behavior of Al-ProD via fluorescence imaging, 3 × 10^5 MDA-MB231 and H9C2 cells were seeded in confocal dishes. […] As a control, MDA-MB231 cells were pre-incubated for 2 h with cathepsin B-inhibitory siRNA that was pre-incubated with Lipofectamine 2000 for 40 min at room temperature. Then, cells were washed twice with DPBS, fixed with 5% paraformaldehyde for 15 min, and stained with 4′,6-diamidino-2-phenylindole (DAPI) for 10 min. Fluorescence imaging was performed using a Leica TCS SP8 confocal laser-scanning microscope (Leica Microsystems GmbH; Wetzlar, Germany). The DOX fluorescence in images was quantitatively analyzed using an Image Pro software (Media Cybernetic, Rockville, MD, USA).

[5] = target: T1, bovine serum albumin (BSA) (Bos taurus, UniProt P02769); test: Albumin binding of Al-ProD, SDS-PAGE band shift; conditions: 100 µM compound, 700 µM albumin in PBS pH 7.4, room temperature, 1 h; native 12% SDS-PAGE, trans-UV; unbound band below 7 kDa
T1 construct: purchased Sigma Aldrich
Description: (§3) The albumin-binding property of Al-ProD was firstly evaluated. Briefly, to a human serum albumin (HSA), mouse serum albumin (MSA), or bovine serum albumin (BSA; 700 µM in PBS; pH 7.4), Al-ProD (100 µM) was added and incubated for 0, 5, and 60 min at room temperature. As a control, the HSA solution was pre-incubated with γ-maleimidobutyric acid for 1 h before adding Al-ProD. After incubation, samples were analyzed via native 12% SDS-PAGE gel. The gels were observed by trans-UV using the iBright^TM Imaging System (Invitrogen by Thermo Fisher Scientiric), and then stained with coomassie blue for visualizing proteins. The albumin-binding property of Al-ProD was further analyzed using reverse-phased high performance liquid chromatography (RP-HPLC; […]; Agilent Technologies) with ACN/H2O gradient from 80:20 to 20:80 for 30 min under a fluorescence detector (Ex/Em: 530/590 nm). […] Next, cathepsin B-specific cleavage of Al-ProD that was pre-incubated with HSA for 5 min (HSA-bound Al-ProD; 10 µM) was assessed by incubating with cathepsin B, cathepsin E, cathepsin D, cathepsin L, caspase-9, or caspase-3 (50 µg) at 37 °C for 24 h, followed by an analysis using HPLC with ACN/H2O gradient from 20:80 to 80:20 for 30 min.

[6] = target: T2, mouse serum albumin (MSA) (Mus musculus, UniProt P07724); test: Albumin binding of Al-ProD, SDS-PAGE band shift; conditions: 100 µM compound, 700 µM albumin in PBS pH 7.4, room temperature, 1 h; native 12% SDS-PAGE, trans-UV; unbound band below 7 kDa
T2 construct: purchased Sigma Aldrich
Description: as §3

MDA-MB231 cells = test: Cellular uptake, confocal fluorescence imaging; type: cell-based, human; conditions: 2 µM, 48 h, 37 °C, CLSM
Description: as §2

[7] = 12 h after i.v. injection, 3 mg/kg based on DOX contents
[8] = 3 mg/kg based on DOX contents, once every three days

T2 sequence (P07724 25-608): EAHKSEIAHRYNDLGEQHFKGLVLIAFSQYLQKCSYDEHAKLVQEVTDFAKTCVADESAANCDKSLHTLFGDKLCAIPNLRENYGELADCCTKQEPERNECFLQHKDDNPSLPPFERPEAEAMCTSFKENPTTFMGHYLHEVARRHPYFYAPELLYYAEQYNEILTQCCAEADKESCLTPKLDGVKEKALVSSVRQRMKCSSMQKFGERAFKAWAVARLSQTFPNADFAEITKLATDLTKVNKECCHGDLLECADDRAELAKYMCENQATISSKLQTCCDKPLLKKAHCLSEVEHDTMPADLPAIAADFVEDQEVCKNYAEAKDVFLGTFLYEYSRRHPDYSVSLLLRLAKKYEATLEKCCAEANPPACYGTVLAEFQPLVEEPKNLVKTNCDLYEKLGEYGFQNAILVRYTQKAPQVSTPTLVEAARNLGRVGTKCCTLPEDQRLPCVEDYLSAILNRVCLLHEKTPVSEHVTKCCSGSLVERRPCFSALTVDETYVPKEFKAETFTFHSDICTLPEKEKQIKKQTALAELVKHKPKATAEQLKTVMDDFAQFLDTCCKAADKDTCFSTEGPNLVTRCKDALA
T1 sequence (P02769 25-607): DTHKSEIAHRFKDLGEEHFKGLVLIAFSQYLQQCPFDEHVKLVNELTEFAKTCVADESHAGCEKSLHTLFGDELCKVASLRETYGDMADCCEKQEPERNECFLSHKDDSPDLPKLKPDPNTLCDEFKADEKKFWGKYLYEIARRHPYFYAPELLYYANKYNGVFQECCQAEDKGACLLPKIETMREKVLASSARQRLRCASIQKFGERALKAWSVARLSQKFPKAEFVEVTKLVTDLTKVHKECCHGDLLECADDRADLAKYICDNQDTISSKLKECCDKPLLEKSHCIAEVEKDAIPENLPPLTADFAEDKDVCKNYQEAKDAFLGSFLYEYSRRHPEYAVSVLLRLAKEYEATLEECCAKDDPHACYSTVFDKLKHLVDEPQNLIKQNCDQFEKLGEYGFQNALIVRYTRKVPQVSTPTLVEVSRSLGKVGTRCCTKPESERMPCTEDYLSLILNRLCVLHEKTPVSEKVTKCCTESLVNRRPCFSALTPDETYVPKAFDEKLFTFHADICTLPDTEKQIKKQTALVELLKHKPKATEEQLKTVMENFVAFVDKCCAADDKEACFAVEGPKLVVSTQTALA

SMILES: COc1cccc2c1C(=O)c1c(O)c3c(c(O)c1C2=O)C[C@@](O)(C(=O)CO)C[C@@H]3O[C@H]1C[C@H](NC(=O)CNC(=O)[C@H](CCCNC(=N)N)NC(=O)[C@H](CCCNC(=N)N)NC(=O)[C@H](Cc2ccccc2)NC(=O)CCOCCOCCNC(=O)CCN2C(=O)C=CC2=O)[C@H](O)[C@H](C)O1 [Al-ProD, maleimide-PEG2-FRRG-DOX] ({Propanoyl(3-maleimido)-PEG2}-FRRG-{Doxorubicin(3'-N)})
- AUC increase compared with free DOX ([1]; 3 mg/kg based on DOX contents): approximately sevenfold
- Time for which a detectable amount remained in the body ([1]; 3 mg/kg based on DOX contents): 144 h
- DOX fluorescence from tumor tissues relative to free DOX, NIRF imaging (MDA-MB231 tumor [2]; [7]): 3.33–4.08 fold
- DOX fluorescence in tumor tissues relative to free DOX group, ex vivo imaging (MDA-MB231 tumor [2]; [7]): 3.41–4.92 fold
- DOX fluorescence in whole tumor tissue sections (histology) (MDA-MB231 tumor [2]; 12 h after i.v. injection, 3 mg/kg based on DOX contents, confocal microscopy): strong DOX fluorescence
- Time for which DOX fluorescence was retained in tumor tissues (MDA-MB231 tumor [2]; NIRF imaging, i.v., 3 mg/kg based on DOX contents): 72 h
- Body weights during treatment [3, 8]: no significant body weight loss
- Mice survival during treatment [3, 8]: over 25 days
- Normal organs stained with H&E ([3]; day 20 after treatment): negligible toxicity

SMILES: COc1cccc2c1C(=O)c1c(O)c3c(c(O)c1C2=O)C[C@@](O)(C(=O)CO)C[C@@H]3O[C@H]1C[C@H](N)[C@H](O)[C@H](C)O1 [free DOX, doxorubicin]
- In vivo half-life, T1/2 ([1]; 3 mg/kg based on DOX contents, plasma fluorescence by IVIS): 15 min
- In vivo half-life ([1]; 3 mg/kg, plasma fluorescence by IVIS): 15 min
- Tumor volume on day 20 after treatment (MDA-MB231 tumor [4]): 580.25 ± 139.92 mm^3
- Intracellular location of DOX fluorescence in H9C2 cells (H9C2 cells): clearly observed at the nuclei
- Course of DOX fluorescence in tumor tissues (MDA-MB231 tumor [2]; mouse, in vivo, iv, 3 mg/kg): rapidly decreased for 6 h
- DOX fluorescence in whole tumor tissue sections (histology) (MDA-MB231 tumor [2]; mouse, in vivo, iv, 3 mg/kg): only a small quantity
- Band in SDS-PAGE gel after incubation with BSA (albumin binding) [5]: not bound
- Band in SDS-PAGE gel after incubation with MSA (albumin binding) [6]: not bound
- Intracellular location of DOX fluorescence in MDA-MB231 cells (MDA-MB231 cells): clearly observed at the nuclei
- Mice survival during treatment [3, 8]: ≤ 18 days
- Median survival ([3]; 3 mg/kg once every three days, saline group 20 days): 16 days
- Normal organs stained with H&E ([3]; mouse, in vivo): structural abnormalities
